Results on two compounds are retold here after PMC11096521 (Frontiers in Pharmacology, 2024).

The target of one series is T1, BCRP (Homo sapiens, UniProt Q9UNQ0).
T1 construct: gene ABCG2
T1 sequence (Q9UNQ0 1-655): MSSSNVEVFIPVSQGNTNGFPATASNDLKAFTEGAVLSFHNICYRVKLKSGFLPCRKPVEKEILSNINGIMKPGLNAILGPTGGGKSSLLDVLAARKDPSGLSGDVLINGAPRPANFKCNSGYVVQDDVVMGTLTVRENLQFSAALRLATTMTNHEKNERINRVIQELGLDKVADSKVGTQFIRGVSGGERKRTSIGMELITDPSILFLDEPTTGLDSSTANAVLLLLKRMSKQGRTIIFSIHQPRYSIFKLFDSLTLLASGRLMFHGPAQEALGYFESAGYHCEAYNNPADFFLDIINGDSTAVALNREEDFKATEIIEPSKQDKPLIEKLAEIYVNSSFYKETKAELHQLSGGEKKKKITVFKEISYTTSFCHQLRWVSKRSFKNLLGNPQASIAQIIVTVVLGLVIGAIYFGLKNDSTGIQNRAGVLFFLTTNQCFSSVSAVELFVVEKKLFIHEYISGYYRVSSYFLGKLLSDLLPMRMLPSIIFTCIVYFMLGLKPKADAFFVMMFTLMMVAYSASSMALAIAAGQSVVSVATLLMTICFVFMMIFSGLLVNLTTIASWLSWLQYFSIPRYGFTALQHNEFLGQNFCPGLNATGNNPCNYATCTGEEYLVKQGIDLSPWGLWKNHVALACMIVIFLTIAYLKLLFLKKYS

The next series concerns the target T2, P-gp (Homo sapiens, UniProt P08183).
T2 construct: gene ABCB1; crude membrane protein isolated from High Five insect cells
Put plainly: inhibition of ceralasertib-stimulated P-gp ATPase in crude membranes.

T2 sequence (P08183 whole entry): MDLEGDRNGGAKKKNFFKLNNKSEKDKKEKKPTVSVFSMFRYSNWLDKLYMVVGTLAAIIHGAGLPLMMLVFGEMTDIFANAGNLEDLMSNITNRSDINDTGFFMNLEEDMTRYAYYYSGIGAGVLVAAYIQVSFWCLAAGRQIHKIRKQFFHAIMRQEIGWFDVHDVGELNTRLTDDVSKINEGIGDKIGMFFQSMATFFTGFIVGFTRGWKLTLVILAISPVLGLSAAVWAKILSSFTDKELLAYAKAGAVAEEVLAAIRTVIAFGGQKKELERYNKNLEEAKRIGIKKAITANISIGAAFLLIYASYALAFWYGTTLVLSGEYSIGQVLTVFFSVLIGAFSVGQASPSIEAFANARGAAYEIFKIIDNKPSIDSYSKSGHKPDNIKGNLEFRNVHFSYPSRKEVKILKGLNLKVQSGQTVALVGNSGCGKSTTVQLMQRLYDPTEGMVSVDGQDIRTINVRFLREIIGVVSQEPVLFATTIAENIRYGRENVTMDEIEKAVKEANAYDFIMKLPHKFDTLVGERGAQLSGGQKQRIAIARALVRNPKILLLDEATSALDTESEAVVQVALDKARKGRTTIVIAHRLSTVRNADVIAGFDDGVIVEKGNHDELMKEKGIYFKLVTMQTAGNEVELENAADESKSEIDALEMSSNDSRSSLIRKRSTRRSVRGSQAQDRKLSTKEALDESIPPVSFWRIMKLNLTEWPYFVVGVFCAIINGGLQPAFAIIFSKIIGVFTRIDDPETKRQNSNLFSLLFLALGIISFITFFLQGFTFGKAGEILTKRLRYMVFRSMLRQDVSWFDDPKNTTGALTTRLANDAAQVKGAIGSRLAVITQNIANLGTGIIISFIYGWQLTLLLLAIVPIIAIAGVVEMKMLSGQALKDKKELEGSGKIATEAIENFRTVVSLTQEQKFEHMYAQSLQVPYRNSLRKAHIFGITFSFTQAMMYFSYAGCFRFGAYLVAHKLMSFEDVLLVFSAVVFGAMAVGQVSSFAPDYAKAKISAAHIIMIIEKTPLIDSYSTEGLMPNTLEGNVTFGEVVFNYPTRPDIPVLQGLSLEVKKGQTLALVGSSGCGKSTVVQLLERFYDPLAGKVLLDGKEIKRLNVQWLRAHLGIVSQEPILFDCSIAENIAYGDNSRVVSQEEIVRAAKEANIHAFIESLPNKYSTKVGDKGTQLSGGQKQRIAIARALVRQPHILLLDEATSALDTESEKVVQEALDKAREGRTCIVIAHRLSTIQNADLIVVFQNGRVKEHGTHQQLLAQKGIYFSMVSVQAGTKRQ

On to `O=C1c2c(O)ccc(O)c2C(=O)c2c(NCCNCCO)ccc(NCCNCCO)c21` [mitoxantrone], for which the “radiolabelled efflux/accumulation in NCI-H460/TPT10 cells, reversed by Ko143” value at BCRP was “BCRP-overexpressing NCI-H460/TPT10 cells have decreased intracellular level of [^3H]-mitoxantrone, which can be reversed by Ko143”. For `CN1CCC(COc2cnc(-c3cccc(Cn4nc(-c5cccc(C#N)c5)ccc4=O)c3)nc2)CC1` [tepotinib], on P-gp, the “inhibition of ceralasertib-stimulated P-gp ATPase in crude membranes” value is on record as “Tepotinib, a P-gp ATPase inhibitor, was able to significantly block the activation caused by ceralasertib”.
